Measured values reported in US11958861B2, “Spirocyclic lactams as JAK2 V617F inhibitors” (Incyte Corporation, priority 2021, dated 2024).
Structures can show the parent of a compound that is named as a salt.

How the values were obtained:
[1] = biological target: T1, pseudo-kinase domain (JH2, amino-acids 536-812) of human Wild Type JAK2 (Homo sapiens, UniProt O60674, F794H/W659A/W777A); test: JAK2 LanthaScreen JH2-WT Binding Assay; conditions: 1 hour at 25° C.
T1 construct: pseudo-kinase domain (JH2, amino-acids 536-812 with 3 surface mutations W659A, W777A, F794H); purchased BPS Bioscience 79463; host or cells: baculovirus expression system
Procedure, shortened: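 Biotinylated His-Avi-tagged JAK2 JH2 (0.145 nM), baculovirus-expressed, incubated with compounds, 50 nM fluorescent JH2 tracer and 0.25 nM streptavidin-Tb, 1 h at 25° C in pH 7.5 Tris buffer with MgCl2 and DTT. Non-specific binding defined with 2 mM ATP. TR-FRET read; IC50 from four-parameter fit.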

[2] = biological target: T2, pseudo-kinase domain (JH2, amino-acids 536-812) of human V617F mutant JAK2 (Homo sapiens, UniProt O60674, F794H/V617F/W659A/W777A); test: JAK2 LanthaScreen JH2-V617F Binding Assay; conditions: 1 hour at 25° C.
T2 construct: pseudo-kinase domain (JH2, amino-acids 536-812 with 3 surface mutations W659A, W777A, F794H); purchased BPS Bioscience 79498; host or cells: baculovirus expression system
Procedure, shortened: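 TR-FRET tracer displacement: 0.26 nM protein, 50 nM tracer, 0.25 nM SA-Tb, 50 mM Tris pH 7.5, 10 mM MgCl2, 5 mM DTT; 1 h, 25° C. NSB = 2 mM ATP. IC50, 4-parameter curve.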

[3] = biological target: T3, catalytic domain (JH1, amino acids 826-1132) of human JAK2 (Homo sapiens, UniProt O60674); test: JAK2 LanthaScreen JH1 Binding Assay; conditions: 2 hours at 25° C.
T3 construct: catalytic domain (JH1, amino acids 826-1132) of human JAK2; purchased Carna Biosciences 08-445-20N; host or cells: baculovirus expression system
Procedure, shortened: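 Reaction held 1.5 nM biotinylated FLAG-JAK2 JH1, 50 nM tracer and 0.5 nM streptavidin-Tb in pH 7.5 Tris buffer; 2 mM ATP defined nonspecific binding.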

[4] = biological target: T4, catalytic domain (JH1, amino acids 808-1132) of human JAK2 (Homo sapiens, UniProt O60674); test: JAK2 HTRF Enzyme Activity Assay; format: biochemical; conditions: ATP 30 μM, read-out: ENZ 30UMATP
T4 construct: catalytic domain (JH1, amino acids 808-1132) of human JAK2; His (N); purchased BPS Bioscience 40450; host or cells: baculovirus expression system
Procedure, shortened: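 IC50 values come from a four-parameter fit of HTRF signal (Eu-PY20 antibody/streptavidin-APC, EDTA-quenched). Reaction: 0.015 nM N-His JAK2 catalytic domain (baculovirus), 500 nM biotin-peptide, 30 μM or 1 mM ATP, Tris pH 7.5 buffer, 60 min, 25° C.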

T2 sequence (O60674 536-812 V617F/W659A/W777A/F794H): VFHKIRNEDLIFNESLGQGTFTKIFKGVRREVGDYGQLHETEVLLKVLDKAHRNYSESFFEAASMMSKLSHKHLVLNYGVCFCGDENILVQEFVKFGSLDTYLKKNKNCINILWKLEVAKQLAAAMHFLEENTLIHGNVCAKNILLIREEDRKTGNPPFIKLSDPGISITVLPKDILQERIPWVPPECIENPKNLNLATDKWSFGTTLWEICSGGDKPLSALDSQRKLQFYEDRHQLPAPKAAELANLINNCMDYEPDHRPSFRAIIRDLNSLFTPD
T3 sequence (O60674 826-1132): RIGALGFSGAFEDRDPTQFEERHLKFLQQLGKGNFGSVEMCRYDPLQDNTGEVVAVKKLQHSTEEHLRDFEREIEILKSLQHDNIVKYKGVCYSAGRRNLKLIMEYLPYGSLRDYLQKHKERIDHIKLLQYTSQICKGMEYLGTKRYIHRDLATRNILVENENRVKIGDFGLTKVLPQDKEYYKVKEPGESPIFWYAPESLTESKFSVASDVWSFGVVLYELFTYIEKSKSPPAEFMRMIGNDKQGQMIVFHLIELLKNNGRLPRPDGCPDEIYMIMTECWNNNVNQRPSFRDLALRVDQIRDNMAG
T4 sequence (O60674 808-1132): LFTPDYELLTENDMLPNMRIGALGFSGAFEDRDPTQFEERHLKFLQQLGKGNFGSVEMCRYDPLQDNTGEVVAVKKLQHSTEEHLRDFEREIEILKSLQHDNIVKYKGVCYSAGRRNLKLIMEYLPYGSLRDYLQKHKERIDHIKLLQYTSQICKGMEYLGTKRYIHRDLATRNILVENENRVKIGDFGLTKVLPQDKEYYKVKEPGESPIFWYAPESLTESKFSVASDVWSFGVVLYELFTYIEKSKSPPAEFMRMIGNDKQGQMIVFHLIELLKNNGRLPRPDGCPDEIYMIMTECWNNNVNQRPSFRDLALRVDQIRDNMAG
T1 sequence (O60674 536-812 W659A/W777A/F794H): as the sequence (O60674 536-812 V617F/W659A/W777A/F794H) above, with F82V counted along it

CCS(=O)(=O)N1CC2(C1)CC1(C2)C(=O)N(C)c2cnc3[nH]c(-c4cnn(CC(F)F)c4)c(-c4ccc5c(cnn5C)c4)c3c21 [Example 93, 2″-(1-(2,2-Difluoroethyl)-1H-pyrazol-4-yl)-1-(ethylsulfonyl)-6″-methyl-1″-(1-methyl-1H-indazol-5-yl)-3″,6″-dihydro-7″-dispiro[azetidine-3,1′-cyclobutane-3′,8″-dipyrrolo[2,3-b:3′,2′-d]pyridin]-7″-one, trifluoroacetate salt]
IC50 [1]: ≤ 100 nM | IC50 [2]: ≤ 100 nM | IC50 [3]: 1250 to 2500 nM | IC50 [4]: 1250 to 2500 nM

CCS(=O)(=O)N1CC2(C1)CC1(C2)C(=O)N(C)c2cnc3[nH]c(-c4cnn(C5CCCC5)c4)c(-c4ccc5c(cnn5C)c4)c3c21 [Example 90, 2″-(1-Cyclopentyl-1H-pyrazol-4-yl)-1-(ethylsulfonyl)-6″-methyl-1″-(1-methyl-1H-indazol-5-yl)-3″,6″-dihydro-7″H-dispiro[azetidine-3,1′-cyclobutane-3′,8″-dipyrrolo[2,3-b:3′,2′-d]pyridin]-7″-one, trifluoroacetate salt]
IC50 [1]: ≤ 100 nM | IC50 [2]: ≤ 100 nM | IC50 [3]: 1250 to 2500 nM | IC50 [4]: 1250 to 2500 nM

CON1C(=O)C2(CCN(CC3(CC#N)CC3)C2)c2c1cnc1[nH]c(-c3cnn(C)c3)c(-c3ccc4c(cnn4C)c3)c21 (racemic) [Example 72, 2-(1-((6-Methoxy-1-(1-methyl-1H-indazol-5-yl)-2-(1-methyl-1H-pyrazol-4-yl)-7-oxo-6,7-dihydro-3H-spiro[dipyrrolo[2,3-b:3′,2′-d]pyridine-8,3′-pyrrolidin]-1′-yl)methyl)cyclopropyl)acetonitrile, trifluoroacetate salt]
IC50 [1]: 500 to 1250 nM | IC50 [2]: 1250 to 2500 nM | IC50 [3]: > 2500 nM | IC50 [4]: 500 to 1250 nM

[2H]C([2H])([2H])n1ncc2cc(-c3c(-c4cnn5c4CCC5)[nH]c4ncc5c(c34)C3(CCN(C4(CC#N)CCCC4)CC3)C(=O)N5C)ccc21 [Example 79, 2-(1-(2-(5,6-Dihydro-4H-pyrrolo[1,2-b]pyrazol-3-yl)-6-methyl-1-(1-(methyl-d3)-1H-indazol-5-yl)-7-oxo-6,7-dihydro-3H-spiro[dipyrrolo[2,3-b:3′,2′-d]pyridine-8,4′-piperidin]-1′-yl)cyclopentyl)acetonitrile]
IC50 [1]: ≤ 100 nM | IC50 [2]: ≤ 100 nM | IC50 [3]: > 2500 nM | IC50 [4]: 1250 to 2500 nM

CN1C(=O)C2(CCN(C3(CC#N)CCC3)CC2)c2c1cnc1[nH]c(-c3cnn(CC(C)(C)O)c3)c(-c3ccc(C4CC4)cc3)c21 [Example 49, 2-(1-(1-(4-Cyclopropylphenyl)-2-(1-(2-hydroxy-2-methylpropyl)-1H-pyrazol-4-yl)-6-methyl-7-oxo-6,7-dihydro-3H-spiro[dipyrrolo[2,3-b:3′,2′-d]pyridine-8,4′-piperidin]-1′-yl)cyclobutyl)acetonitrile, trifluoroacetate salt]
IC50 [1]: ≤ 100 nM | IC50 [2]: ≤ 100 nM | IC50 [3]: > 2500 nM | IC50 [4]: > 2500 nM

CN1C(=O)C2(CCN(C3(CC#N)CCC3)CC2)c2c1cnc1[nH]c(-c3cnn(C4CCOC4)c3)c(-c3ccc4c(cnn4C)c3)c21 (racemic) [Example 45, 2-(1-(6-Methyl-1-(1-methyl-1H-indazol-5-yl)-7-oxo-2-(1-(tetrahydrofuran-3-yl)-1H-pyrazol-4-yl)-6,7-dihydro-3H-spiro[dipyrrolo[2,3-b:3′,2′-d]pyridine-8,4′-piperidin]-1′-yl)cyclobutyl)acetonitrile, trifluoroacetate salt]
IC50 [1]: ≤ 100 nM | IC50 [2]: ≤ 100 nM | IC50 [3]: 100 to 500 nM | IC50 [4]: ≤ 100 nM

CN1C(=O)C2(CCN(C3(CC#N)CCC3)CC2)c2c1cnc1[nH]c(-c3cnn(CC(F)F)c3)c(-c3ccc4c(cnn4C)c3)c21 [Example 30, 2-(1-(2-(1-(2,2-Difluoroethyl)-1H-pyrazol-4-yl)-6-methyl-1-(1-methyl-1H-indazol-5-yl)-7-oxo-6,7-dihydro-3H-spiro[dipyrrolo[2,3-b:3′,2′-d]pyridine-8,4′-piperidin]-1′-yl)cyclobutyl)acetonitrile, trifluoroacetate salt]
IC50 [1]: ≤ 100 nM | IC50 [2]: ≤ 100 nM | IC50 [3]: 100 to 500 nM | IC50 [4]: 100 to 500 nM

CCS(=O)(=O)N1CC2(C1)CC1(C2)C(=O)N(C)c2cnc3[nH]c(-c4cnn5c4CCC5)c(-c4ccc5c(cnn5C)c4)c3c21 [Example 94, 2″-(5,6-Dihydro-4H-pyrrolo[l,2-b]pyrazol-3-yl)-1-(ethylsulfonyl)-6″-methyl-1″-(1-methyl-1H-indazol-5-yl)-3″,6″-dihydro-7″-dispiro[azetidine-3,1′-cyclobutane-3′,8″-dipyrrolo[2,3-b:3′,2′-d]pyridin]-7″-one, trifluoroacetate salt]
IC50 [1]: ≤ 100 nM | IC50 [2]: ≤ 100 nM | IC50 [3]: > 2500 nM | IC50 [4]: > 2500 nM

CN1C(=O)[C@]2(CC[C@@H](NS(=O)(=O)C3CC3)C2)c2c1cnc1[nH]c(-c3cnn(C)c3)c(-c3ccc4c(cnn4C)c3)c21 (racemic) [Example 55, trifluoroacetate salt]
IC50 [1]: ≤ 100 nM | IC50 [2]: ≤ 100 nM | IC50 [3]: 1250 to 2500 nM | IC50 [4]: 500 to 1250 nM

CN1C(=O)C2(CCN(C3(CC#N)CCC3)CC2)c2c1cnc1[nH]c(-c3cnn(C(C)(C)CO)c3)c(-c3ccc4c(cnn4C)c3)c21 [Example 37, 2-(1-(2-(1-(1-Hydroxy-2-methylpropan-2-yl)-1H-pyrazol-4-yl)-6-methyl-1-(1-methyl-1H-indazol-5-yl)-7-oxo-6,7-dihydro-3H-spiro[dipyrrolo[2,3-b:3′,2′-d]pyridine-8,4′-piperidin]-1′-yl)cyclobutyl)acetonitrile, trifluoroacetate salt]
IC50 [1]: ≤ 100 nM | IC50 [2]: ≤ 100 nM | IC50 [3]: 100 to 500 nM | IC50 [4]: 100 to 500 nM

CCCC(=O)N1CCC2(CC1)CC1(C2)C(=O)N(C)c2cnc3[nH]c(-c4ccn(C)c4)c(-c4ccc5c(cnn5C)c4)c3c21 [Example 64, 1″-Butyryl-6-methyl-1-(1-methyl-1H-indazol-5-yl)-2-(1-methyl-1H-pyrrol-3-yl)-3,6-dihydro-7H-dispiro[dipyrrolo[2,3-b:3′,2′-d]pyridine-8,1cyclobutane-3′,4″-piperidin]-7-one, trifluoroacetate salt]
IC50 [1]: ≤ 100 nM | IC50 [2]: ≤ 100 nM | IC50 [3]: 1250 to 2500 nM | IC50 [4]: 1250 to 2500 nM

COC(=O)N1CCC(CC#N)(N2CCC3(CC2)C(=O)N(C)c2cnc4[nH]c(-c5cnn(C)c5)c(-c5ccc6c(cnn6C)c5)c4c23)CC1 [Example 81, Methyl 4-(cyanomethyl)-4-(6-methyl-1-(1-methyl-1H-indazol-5-yl)-2-(1-methyl-1H-pyrazol-4-yl)-7-oxo-6,7-dihydro-3H-spiro[dipyrrolo[2,3-b:3′,2′-d]pyridine-8,4′-piperidin]-1′-yl)piperidine-1-carboxylate]
IC50 [1]: ≤ 100 nM | IC50 [2]: ≤ 100 nM | IC50 [3]: 500 to 1250 nM | IC50 [4]: 500 to 1250 nM

CCNC(=O)N1CC(CC#N)(N2CCC3(CC2)C(=O)N(C)c2cnc4[nH]c(-c5cnn(C)c5)c(-c5ccccc5)c4c23)C1 [Example 25, 3-(Cyanomethyl)-N-ethyl-3-(6-methyl-2-(1-methyl-1H-pyrazol-4-yl)-7-oxo-1-phenyl-6,7-dihydro-3H-spiro[dipyrrolo[2,3-b:3′,2′-d]pyridine-8,4′-piperidin]-1′-yl)azetidine-1-carboxamide, trifluoroacetate salt]
IC50 [1]: ≤ 100 nM | IC50 [2]: ≤ 100 nM | IC50 [3]: 500 to 1250 nM | IC50 [4]: 100 to 500 nM

CN1C(=O)C2(CCN(CC3(CC#N)CC3)C2)c2c1cnc1[nH]c(-c3cnn(Cc4ccc(C#N)cc4)c3)c(-c3ccc4c(cnn4C)c3)c21 (racemic) [Example 69, 4-((4-(1′-((1-(Cyanomethyl)cyclopropyl)methyl)-6-methyl-1-(1-methyl-1H-indazol-5-yl)-7-oxo-6,7-dihydro-3H-spiro[dipyrrolo[2,3-b:3′,2′-d]pyridine-8,3′-pyrrolidin]-2-yl)-1H-pyrazol-1-yl)methyl)benzonitrile, trifluoroacetate salt]
IC50 [1]: ≤ 100 nM | IC50 [2]: ≤ 100 nM | IC50 [3]: 500 to 1250 nM | IC50 [4]: 500 to 1250 nM
